How the values were obtained:
[1] = test system: human umbilical vein endothelial cells (HUVEC); assay: Peak NO release from HUVEC after acute treatment (porphyrinic probe); format: cell-based
Experimental: All measurements presented are recorded in vitro using a sensitive porphyrinic probe. NO release is measured directly from human umbilical vein endothelial cells (HUVEC). HUVEC cells were obtained from American Type Culture Collection (Manassas, Va.) and grown in Ham's F12K medium with 2 mM L-glutamine adjusted to contain 1.5 g/l sodium bicarbonate and supplemented with 0.1 mg/ml heparin and 0.03-0.05 mg/ml endothelial cell growth supplement (ECGS)=10% fetal bovine serum. The HUVEC cells were kept in an atmosphere of elevated CO2 concentration (5%). Nebivolol, its enantiomers, and nebivolol metabolites including the nebivolol glucuronides, 4-hydroxy-5′ phenol metabolite, 4-hydroxy-8′-phenol metabolite, 4-hydroxy, 5-hydroxy, 8-hydroxy metabolites, N-DAD, N-DACA and N-DAAA, are obtained from Mylan Laboratories (Morgantown, W. Va.)
All measurements of endothelial NO release are conducted in Hank's balance solution at 37° C. Cell wells are transferred to a Faraday cage and a porphyrinic sensor (diameter 0.5 mm) is positioned at a distance of 5±2 μm from the surface of the endothelial cells using an inverted microscope (Leica Microsystems, Wetzler, Germany) and a computer-assisted micromanipulator. The sensor operates with a three-electrode system: nanosensor (working electrode), saturated calomel electrode (reference electrode) and platinum wire (counter electrode, 0.5 mm diameter). The three electrodes are connected to a potentiostat/galvanostat PAR273. The baseline is stabilized after about 20 seconds. The test compounds are injected with a nanoinjector on to the surface of the cells following solubilization in buffer. The current proportional to the NO concentration is measured with the sensor, which operates in amperometric mode at a constant potential of 0.63V. Data are acquired with the use of an IBM computer with custom software and amperograms (current vs. time curves) and are recorded with a Guniry FAS1 Femtostat (Warminster, Pa.).
Nanosensors are prepared from carbon fibers. The size of the tip of carbon fiber is reduced from 6 μm to less than 1 μm by temperature controlled burning. The sensors are sensitized to NO by deposition of electrically conductive polymeric porphyrin and covered with a thin layer of Nafion. The prophyrinic microsensor has a response time of 0.1 ms at a micromolar NO concentration and 10 ms at the detection limit of 1 nM.
The nanosensor for NO is calibrated using saturated solution (concentration 1.82 mM verified with the coulometric method). Linear calibration curves are constructed for each sensor from […] before and after measurements of cell activity. The data are presented as the mean±SEM for each of the triplicate measurements. The data (calculation and plotting) are transferred to Microcal Origin Software (OriginLab Corp., Northampton, Mass.).
The HUVEC preparation is stable over the course of these experiments with the cells remaining viable in culture for >24 hours. Under non-stimulating conditions, basal levels of NO release are very low (<30 nM). Measurement of NO release as a function of treatment is conducted in individual endothelial cells. Multiple measurements of NO release can be conducted on single cells following a brief refractory period. For robust statistical analysis, separate cells are used for each concentration and type of drug used in these analyses.

[2] = test system: HUVECs isolated from White and Black American donors; assay: Acute NO release from endothelial cells of White and Black American donors (electrochemical nanosensors); format: cell-based, human; conditions: for NO (nM), Black Donors, acute NO release / NO (nM), White Donors, acute NO release: acute drug treatment 1.0 μM, mean±S.D. (n=5); for NO (nM), Black Donors, acute NO release: HUVECs from Black American donors; for NO (nM), White Donors, acute NO release: HUVECs from White donors
Excerpt: Values are mean±S.D. (n=5).
The 4′(R)-hydroxy-5-fluoro-l-nebivolol metabolite also exceeds the activity of nebivolol and even l-nebivolol by >50%. These findings indicate that hydroxy metabolites of nebivolol have distinct and highly reproducible effects on acute NO release in human endothelial cells.
In Table 1 and FIG. 7, the comparative effects of nebivolol, d-nebivolol, l-nebivolol and six stereoselective hydroxy metabolites on NO release are shown for cells harvested from white (open bars) and black American (solid bars) donors. The release of the NO from these endothelial cells was evaluated with electrochemical nanosensors placed within close proximity to the cell surface. […] The 4′(R)-hydroxy-5-fluoro-l-nebivolol metabolite (1689-64B) also exceeds the activity of l-nebivolol by >50%. The metabolite with the least activity is similar to nebivolol. These findings indicate that hydroxy metabolites of nebivolol have distinct and highly reproducible effects on acute NO release in human endothelial cells.

human endothelial cells = assay: Capacity for NO release in human endothelial cells following chronic administration; format: cell-based

| Structure (SMILES) | NO (nM), Black Donors, acute NO release [2] [nM] | NO (nM), White Donors, acute NO release [2] [nM] | further results |
| --- | --- | --- | --- |
| OC(CNCC(O)C1CCc2cc(F)ccc2O1)C1CCc2cc(F)ccc2O1 (racemic) [nebivolol] | 148 ± 10 | 218 ± 11 | NO peak release ([1]; 5 μM, acute, FIG. 4): ~225 nm |
| Oc1cc2c(cc1F)OC(C(O)CNCC(O)C1C[C@H](O)c3cc(F)ccc3O1)CC2 (stereo partly drawn) [4 (S)-Hydroxy-7′-fluoro-6′-hydroxy-l-nebivolol] | 242 ± 12 | 272 ± 12 |  |
| OC(CNCC(O)C1C[C@H](O)c2cc(F)ccc2O1)C1CCc2cc(F)ccc2O1 (stereo partly drawn) [4(S)-Hydroxy-l-nebivolol] | 151 ± 8 | 204 ± 12 |  |
| OC1CC(C(O)CNCC(O)C2CCc3cc(F)ccc3O2)Oc2ccc(F)cc21 (stereo not drawn) [4-hydroxy nebivolol] |  |  | NO release compared with reference agents (in words) ([1]; 5 μM, acute, FIG. 4): approximates values measured with acetylcholine; peak NO release ([1]; 5 μM, acute, FIG. 4): exceeds 400 nM; NO release from human endothelial cells, concentration dependence (in words) ([1]; acute administration): increase NO release from human endothelial cell in concentration dependent fashion; EC50 ([1]; acute, concentration-response, FIG. 6): 500 nM; capacity for NO release following chronic administration (in words) (human endothelial cells): increase the capacity for NO release |
| Oc1ccc2c(c1F)CCC(C(O)CNCC(O)C1C[C@@H](O)c3cc(F)ccc3O1)O2 (stereo partly drawn) [4′(R)-Hydroxy-5-fluoro-6-hydroxy-l-nebivolol] | 316 ± 17 | 407 ± 27 | NO release activity in excess of l-nebivolol ([2]; acute treatment, compared with l-nebivolol (b247 also nebivolol)): > 50% |
| Oc1cc2c(cc1F)OC(C(O)CNCC(O)C1C[C@@H](O)c3cc(F)ccc3O1)CC2 (stereo partly drawn) [4′(R)-Hydroxy-7-fluoro-6-hydroxy-l-nebivolol] | 383 ± 18 | 476 ± 20 | NO release, black donors ([2]; acute treatment, endothelial cells from black donors): 383 ± 18 nmol/L; NO release, white donors ([2]; acute treatment, endothelial cells from white donors): 476 ± 20 nmol/L; increase in NO release as compared to nebivolol ([2]; acute treatment, white and black donors): nearly two-fold increase |
| OC(CNCC(O)C1C[C@@H](O)c2cc(F)ccc2O1)C1CCc2cc(F)ccc2O1 (stereo partly drawn) [4′(R)-Hydroxy-l-nebivolol] | 194 ± 10 | 237 ± 11 |  |
| Oc1ccc2c(c1F)CCC(C(O)CNCC(O)C1CCc3cc(F)ccc3O1)O2 (stereo not drawn) [5-fluoro-6-hydroxy-l-nebivolol] | 212 ± 9 | 258 ± 20 |  |
| Oc1c(F)ccc2c1CCC(C(O)CNCC(O)C1CCc3cc(F)ccc3O1)O2 (stereo not drawn) [5-hydroxy nebivolol] |  |  | peak NO release ([1]; 10 μM, acute, FIG. 3): approximately 220 nM |
| Oc1cc(F)cc2c1OC(C(O)CNCC(O)C1CCc3cc(F)ccc3O1)CC2 (stereo not drawn) [8-hydroxy nebivolol] |  |  | peak NO release ([1]; 10 μM, acute, FIG. 3): approximately 220 nM |
| O[C@H](CNC[C@@H](O)[C@H]1CCc2cc(F)ccc2O1)[C@@H]1CCc2cc(F)ccc2O1 [d-nebivolol, reference compound] | 87 ± 6 | 127 ± 17 |  |
| O[C@@H](CNC[C@H](O)[C@H]1CCc2cc(F)ccc2O1)[C@@H]1CCc2cc(F)ccc2O1 [l-nebivolol, reference compound] | 192 ± 9 | 268 ± 12 |  |
